Experimental findings from US6685617B1, “Inhibitors of α4β1 mediated cell adhesion” (Pharmacia & Upjohn Company, priority 1998, dated 2004) are described below.

The structures appear in SMILES notation. Where a name gives a salt, the structure may show the parent alone. Some results are limits rather than exact numbers.

Experiment [1] deals with T1, α4β1 integrin (Jurkat cell adhesion to immobilized CS-1 derived peptide CLHPGEILDVPST) (Homo sapiens, UniProt P05556+P13612).
T1 construct: 100 μl of Jurkat cells (2.5×10^6 cells/ml) in DMEM plus BSA; host or cells: Jurkat T-cell line
T1 sequence (P13612 34-1032): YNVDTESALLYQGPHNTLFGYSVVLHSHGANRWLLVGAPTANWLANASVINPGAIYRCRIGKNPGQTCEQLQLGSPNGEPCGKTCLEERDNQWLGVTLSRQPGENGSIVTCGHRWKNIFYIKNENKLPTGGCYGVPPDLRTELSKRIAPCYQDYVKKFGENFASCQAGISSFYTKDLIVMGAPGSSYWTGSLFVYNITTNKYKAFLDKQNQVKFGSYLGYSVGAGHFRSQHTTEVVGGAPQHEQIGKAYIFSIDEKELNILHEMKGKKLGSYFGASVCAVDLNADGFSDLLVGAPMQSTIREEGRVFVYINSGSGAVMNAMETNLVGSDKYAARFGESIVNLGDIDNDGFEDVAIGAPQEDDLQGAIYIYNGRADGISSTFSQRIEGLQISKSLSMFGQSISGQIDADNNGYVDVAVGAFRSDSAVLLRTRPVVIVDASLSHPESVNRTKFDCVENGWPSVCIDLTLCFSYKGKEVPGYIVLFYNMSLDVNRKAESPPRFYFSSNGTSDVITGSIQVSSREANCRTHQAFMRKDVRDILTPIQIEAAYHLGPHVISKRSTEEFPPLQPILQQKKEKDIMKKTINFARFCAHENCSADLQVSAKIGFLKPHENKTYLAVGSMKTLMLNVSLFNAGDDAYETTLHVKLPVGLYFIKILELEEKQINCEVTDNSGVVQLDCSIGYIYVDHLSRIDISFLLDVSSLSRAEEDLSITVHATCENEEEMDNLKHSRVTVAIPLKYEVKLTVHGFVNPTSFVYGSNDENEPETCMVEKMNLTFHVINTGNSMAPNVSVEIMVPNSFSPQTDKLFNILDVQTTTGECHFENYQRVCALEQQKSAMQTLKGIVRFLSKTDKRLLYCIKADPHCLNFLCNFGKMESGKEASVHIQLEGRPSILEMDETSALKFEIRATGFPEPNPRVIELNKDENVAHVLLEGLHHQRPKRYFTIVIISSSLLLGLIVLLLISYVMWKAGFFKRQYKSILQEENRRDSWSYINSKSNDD
T1 sequence (P05556 21-798): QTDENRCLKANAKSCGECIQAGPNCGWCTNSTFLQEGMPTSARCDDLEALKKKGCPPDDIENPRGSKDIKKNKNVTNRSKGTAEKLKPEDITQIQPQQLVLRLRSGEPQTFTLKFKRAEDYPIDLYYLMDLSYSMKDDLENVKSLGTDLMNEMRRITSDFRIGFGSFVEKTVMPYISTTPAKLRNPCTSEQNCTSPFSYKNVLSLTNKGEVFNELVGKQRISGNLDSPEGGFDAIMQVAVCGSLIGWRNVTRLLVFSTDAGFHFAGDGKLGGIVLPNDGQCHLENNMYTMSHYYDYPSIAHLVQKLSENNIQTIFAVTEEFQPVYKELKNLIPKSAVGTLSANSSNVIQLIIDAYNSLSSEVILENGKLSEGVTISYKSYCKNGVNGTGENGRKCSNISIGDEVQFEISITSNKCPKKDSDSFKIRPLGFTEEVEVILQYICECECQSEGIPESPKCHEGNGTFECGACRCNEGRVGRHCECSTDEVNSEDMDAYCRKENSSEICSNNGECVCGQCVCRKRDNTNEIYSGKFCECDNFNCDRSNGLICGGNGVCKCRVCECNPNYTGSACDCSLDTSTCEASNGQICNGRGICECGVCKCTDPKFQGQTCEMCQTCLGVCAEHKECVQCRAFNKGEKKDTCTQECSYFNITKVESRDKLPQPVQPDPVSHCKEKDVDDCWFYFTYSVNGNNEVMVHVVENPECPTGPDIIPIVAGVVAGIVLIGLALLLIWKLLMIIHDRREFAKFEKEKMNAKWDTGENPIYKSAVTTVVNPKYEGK
Briefly: Jurkat-CS-1 assay. The experiment is classed as cell-based. As to conditions: Jurkat cells on CS-1 peptide coated plates; read-out: JK/CS-1 (Jurkat CS-1 Assay IC50 value range). The method in brief:
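CS-1 peptide was SPDP-crosslinked onto HSA-coated plates and blocked with BSA. Jurkat cells (2.5×10^6 cells/ml) in DMEM/BSA were mixed with compound, generally at 100, 20, 5 and 1.25 μM, and allowed to adhere for 1 hr at 37° C. Bound cells were fixed, stained with toluidine blue and quantified by OD590.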

The target of experiment [2] is T2, α4β1 integrin (Jurkat T-cell adhesion to IL-1 stimulated endothelial cell monolayers) (Homo sapiens, UniProt P05556+P13612).
T2 construct: a T-cell line, Jurkat, known to express the α4β1 integrin; host or cells: Jurkat T-cell line
T2 sequence (P13612 34-1032): as the sequence (P13612 34-1032) above
T2 sequence (P05556 21-798): as the sequence (P05556 21-798) above
Briefly: Jurkat-endothelial cell adhesion assay (Jurkat EC). Type of experiment: cell-based. As to conditions: Jurkat cells on IL-1 stimulated human umbilical vein endothelial cells; read-out: JK/EC (Jurkat EC Assay IC50 value range). The essentials: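 BCECF-AM-labelled Jurkat cells were mixed with compound, generally 100, 20, 5 and 1.25 μM, and added to HUVEC monolayers (passage ≤6) pre-stimulated 4 hr at 37° C with 0.1 ng/ml IL-1. After 5 min on ice and 20 min at 37° C, washed wells were read by fluorescence as % adhesion relative to no compound.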

Regarding `COC(=O)[C@H](Cc1ccc(NC(=O)c2c(Cl)cccc2Cl)cc1)NC(=O)[C@H]1CSCN1C(=O)OCc1ccccc1` (relative stereo) [Example 20, [S-(R*,R*)]-4-[[[1-[[4-[(2,6-Dichlorobenzoyl)amino]phenyl]methyl]-2-methoxy-2-oxoethyl]amino]carbonyl]-3-thiazolidinecarboxylic Acid 3-Phenylmethyl Ester], the figures for the IC50 in experiment [1] and in experiment [2] were at least 750 nM and at least 1000 nM, respectively.
The like results for `CCOC(=O)N1[C@@H](C(=O)O)C[C@@H]1C(=O)N[C@@H](Cc1ccc(NC(=O)c2c(Cl)cccc2Cl)cc1)C(=O)O` [Example 141, [2R-(2α,4β(S*)]-4-[[[1-Carboxy-2-[4-[(2,6-dichlorobenzoyl)amino]phenyl]ethyl]-amino]-carbonyl]-1,2-azetidinedicarboxylic Acid 1-Ethyl Ester] were, in that order, 50 to 750 nM and at least 1000 nM.
The like results for `O=C(O)c1ccccc1C(=O)N1CCCC[C@H]1C(=O)N[C@@H](Cc1ccc(NC(=O)c2c(Cl)cccc2Cl)cc1)C(=O)O` [Example 181] were, in that order, 50 to 750 nM and at least 1000 nM.
On to `CN1C(=O)CCC1(CCC(=O)O)CCC(=O)N[C@@H](Cc1ccc(OCc2c(Cl)cccc2Cl)cc1)C(=O)O` (stereo partly drawn) [Example 107, 2-[3-[[(1S)-1-Carboxy-2-[4-[(2,6-dichlorophenyl)methoxy]phenyl]ethyl]amino]-3-oxo-propyl]-1-methyl-5-oxo-2-pyrrolidinepropanoic Acid], for which the IC50 in experiment [1] is 50 to 750 nM; in experiment [2], at least 1000 nM.
As for `O=C(O)/C=C/C(=O)N1CSC[C@@H]1C(=O)N[C@@H](Cc1ccc(NC(=O)c2c(Cl)cccc2Cl)cc1)C(=O)O` [Example 261], the values for the IC50 in experiment [1] and in experiment [2] were 50 to 750 nM and 250 to 1000 nM, respectively.
Take `CC(C)(C)OC(=O)N1CSC[C@H]1C(=O)N[C@@H](Cc1ccc(NC(=O)c2c(Cl)cccc2Cl)cc1)C(=O)O` (stereo in doubt) [Example 14, [R-(R*,S*)]-4-[[[1-Carboxy-2-[4-[(2,6-dichlorobenzoyl)amino]phenyl]ethyl]amino]carbonyl]-3-thiazolidinecarboxylic Acid 3-(1,1-Dimethylethyl)ester]: the IC50 lay within 50 to 750 nM in experiment [1] and 250 to 1000 nM in experiment [2].
For `O=C(O)/C=C/C(=O)N1CCCC[C@@H]1C(=O)N[C@@H](Cc1ccc(NC(=O)c2c(Cl)cccc2Cl)cc1)C(=O)O` [Example 248], the IC50 in experiment [1] is 50 to 750 nM; in experiment [2], 250 to 1000 nM.
Regarding `O=C(Nc1ccc(C[C@H](NC(=O)[C@@H]2CCCCN2C(=O)C2CCCC(C(=O)O)C2)C(=O)O)cc1)c1c(Cl)cccc1Cl` (stereo partly drawn) [Example 178], the figures for the IC50 in experiment [1] and in experiment [2] were at most 50 nM and at least 1000 nM, respectively.
On to `CC(C)(C)OC(=O)N1CSC[C@@H]1C(=O)N[C@@H](Cc1ccc(NC(=O)c2c(Cl)cccc2Cl)cc1)C(=O)O` (relative stereo) [Example 10, [S-(R*,R*)]-4-[[[1-Carboxy-2-[4-[(2,6-dichlorobenzoyl)amino]phenyl]ethyl]amino]carbonyl]-3-thiazolidinecarboxylic Acid 3-(1,1-Dimethylethyl)ester], for which the IC50 was at most 50 nM in experiment [1] and at most 250 nM in experiment [2].
Regarding `O=C(O)CCC(=O)N1CSC[C@H]1C(=O)N[C@@H](Cc1ccc(NC(=O)c2c(Cl)cccc2Cl)cc1)C(=O)O` (relative stereo) [Example 67, [R-(R*,S*)]-4-[[[1-Carboxy-2-[4-[(2,6-dichlorobenzoyl)amino]phenyl]ethyl]amino]carbonyl]-γ-oxo-3-thiazolidinebutanoic Acid], the IC50 was 50 to 750 nM in experiment [1] and at least 1000 nM in experiment [2].
The like results for `O=C(O)c1cc(C(=O)N2CSC[C@H]2C(=O)N[C@@H](Cc2ccc(NC(=O)c3c(Cl)cccc3Cl)cc2)C(=O)O)n[nH]1` [Example 243] were, in that order, 50 to 750 nM and 250 to 1000 nM.
In the case of `O=C(Nc1ccc(C[C@H](NC(=O)[C@@H]2CCCCN2C(=O)c2cc(O)c3ccccc3n2)C(=O)O)cc1)c1c(Cl)cccc1Cl` [Example 188], the IC50 is 50 to 750 nM in experiment [1] and at least 1000 nM in experiment [2].
As to `CC(C)(CC(=O)O)CC(=O)N1CCCC(C(=O)N[C@@H](Cc2ccc(NC(=O)c3c(Cl)cccc3Cl)cc2)C(=O)O)C1` (stereo partly drawn) [Example 196], the figures for the IC50 in experiment [1] and in experiment [2] were 50 to 750 nM and at least 1000 nM, respectively.
Consider `CCOC(=O)N1CSC(C)(C)[C@@H]1C(=O)N[C@@H](Cc1ccc(NC(=O)c2c(Cl)cccc2Cl)cc1)C(=O)OC` (relative stereo) [Example 30, [S-(R*,R*)]-4-[[[1-[[4-[(2,6-Dichlorobenzoyl)amino]phenyl]methyl]-2-methoxy-2-oxoethyl)amino]carbonyl]-5,5-dimethyl-3-thiazolidinecarboxylic Acid 3-Ethyl Ester], for which the figures for the IC50 in experiment [1] and in experiment [2] were 50 to 750 nM and at least 1000 nM, respectively.
Consider `CC1(C)SCN(C(=O)CCC(=O)O)[C@H]1C(=O)N[C@@H](Cc1ccc(NC(=O)c2c(Cl)cccc2Cl)cc1)C(=O)O` (relative stereo) [Example 63, [S-(R*,R*)]-4-[[[1-Carboxy-2-[4-[(2,6-dichlorobenzoyl)amino]phenyl]ethyl]amino]carbonyl]-5,5-dimethyl-δ-oxo-3-thiazolidinebutanoic Acid], for which the figures for the IC50 in experiment [1] and in experiment [2] were at most 50 nM and at most 250 nM, respectively.
For `COc1ccc(C(=O)N2CCCC(C(=O)N[C@@H](Cc3ccc(NC(=O)c4c(Cl)cccc4Cl)cc3)C(=O)O)C2)cc1OC` (stereo partly drawn) [Example 203], the IC50 in experiment [1] was 50 to 750 nM; in experiment [2], at least 1000 nM.
Regarding `O=C(Nc1ccc(C[C@H](NC(=O)[C@@H]2CCCCN2C(=O)C2CCOC2)C(=O)O)cc1)c1c(Cl)cccc1Cl` (stereo partly drawn) [Example 193], the IC50 is 50 to 750 nM in experiment [1] and at most 250 nM in experiment [2].
The like results for `CN1C(=O)CCC1(CCC(=O)O)CCC(=O)N[C@@H](Cc1ccc(NC(=O)c2c(Cl)cccc2Cl)cc1)C(=O)O` (stereo partly drawn) [Example 111, 2-[3-[[(1S)-1-Carboxy-2-[4-[(2,6-dichlorobenzoyl)amino]phenyl]ethyl]amino]-3-oxo-propyl]-1-methyl-5-oxo-2-pyrrolidinepropanoic Acid] were, in that order, 50 to 750 nM and 250 to 1000 nM.
For `C[C@@H](c1ccccc1)N1[C@H](C(=O)O)C[C@H]1C(=O)N[C@@H](Cc1ccc(NC(=O)c2c(Cl)cccc2Cl)cc1)C(=O)O` [Example 129, [2S-[1(R*),2α,4β(R*)]]-4-[[[1-Carboxy-2-[4-[(2,6-dichlorobenzoyl)amino]phenyl]ethyl]-amino]carbonyl]-1-(1-phenylethyl)-2-azetidinecarboxylic Acid Dilithium Salt], in that order: 50 to 750 nM and 250 to 1000 nM.
Consider `CC(=O)N1[C@@H](C(=O)N[C@@H](Cc2ccc(NC(=O)c3c(Cl)cccc3Cl)cc2)C(=O)O)CSC1(C)C` [Example 84, N-[[(4S)-3-Acetyl-2,2-dimethyl-4-thiazolidinyl]carbonyl]-4-[(2,6-dichlorobenzoyl)amino]-L-phenylalanine], for which the IC50 is at most 50 nM in experiment [1] and at most 250 nM in experiment [2].
Regarding `O=C(Nc1ccc(C[C@H](NC(=O)[C@@H]2CCCCN2C(=O)c2cccnc2)C(=O)O)cc1)c1c(Cl)cccc1Cl` [Example 185], the IC50 in experiment [1] was at most 50 nM; in experiment [2], at most 250 nM.
